Data taken from patent US20120214760A1, “TREATMENT OF URINARY TRACT INFECTIONS WITH ANTIBACTERIAL AMINOGLYCOSIDE COMPOUNDS” (Achaogen, Inc., priority 2009, published 2012).
In brackets after ≈: the same amount, converted by molar mass. Where two headings read alike, the source gives them in different places.

What was measured:
[1] = test system: E. coli ATCC 25922 (AECO001); test: MIC, CLSI broth microdilution; assay type: cell-based; conditions: Escherichia coli
Protocol: (§1) Minimum inhibitory concentrations (MIC) were determined by reference Clinical and Laboratory Standards Institute (CLSI) broth microdilution methods per M7-A7 [2006]. Quality control ranges utilizing E. coli ATCC 25922, P. aeruginosa ATCC 27853 and S. aureus ATCC 29213, and interpretive criteria for comparator agents were as published in CLSI M100-S17 [2007]. Briefly, serial two-fold dilutions of the test compounds were prepared at 2× concentration in Mueller Hinton Broth. The compound dilutions were mixed in 96-well assay plates in a 1:1 ratio with bacterial inoculum. The inoculum was prepared by suspension of a colony from an agar plate that was prepared the previous day. Bacteria were suspended in sterile saline and added to each assay plate to obtain a final concentration of 5×10^5 CFU/mL. The plates were incubated at 35° C. for 20 hours in ambient air.

[2] = test system: P. aeruginosa ATCC 27853 (APAE001); test: MIC, CLSI broth microdilution; assay type: cell-based; conditions: Pseudomonas aeruginosa
Protocol: as §1

[3] = ATCC25922, read-out: MIC AECO001, Table 1, AECO001 is ATCC25922
[4] = ATCC27853, read-out: MIC APAE001, Table 1, APAE001 is ATCC27853

Compound	MIC [1, 3]	MIC [2, 4]	MIC ([1]; ATCC25922, Table 2, read-out: MIC E. coli)	MIC ([1]; Table 1, AECO001 is ATCC25922, read-out: MIC AECO001)	MIC ([2]; ATCC27853, Table 2, read-out: MIC P. aeruginosa)
CN[C@@H]1[C@@H](O)[C@@H](O[C@@H]2[C@@H](O)[C@H](O[C@H]3OC(CNC[C@H](O)CO)=CC[C@H]3N)[C@@H](N)C[C@H]2NC(=O)[C@@H](O)CCN)OC[C@]1(C)O [Example 28, 6′-(2(S)-Hydroxy-propanol)-1-(4-amino-2(S)-hydroxy-butyryl)-sisomicin]	1 to 16 µg/mL (≈ 1.61 to 25.7 µM)	1 to 16 µg/mL (≈ 1.61 to 25.7 µM)	–	–	–
CN[C@@H]1[C@@H](O)[C@@H](O[C@@H]2[C@@H](O)[C@H](O[C@H]3OC(CNCCO)=CC[C@H]3N)[C@@H](N)C[C@H]2NS(=O)(=O)CCN)OC[C@]1(C)O [Example 29, 6′-(2-Hydroxy-ethyl)-1-(2-amino-ethylsulfonamide)-sisomicin]	1 to 16 µg/mL (≈ 1.67 to 26.7 µM)	> 16 µg/mL	–	–	–
CN[C@@H]1[C@@H](O)[C@@H](O[C@@H]2[C@@H](O)[C@H](O[C@H]3OC(CNCC(N)CO)=CC[C@H]3N)[C@@H](N)C[C@H]2NC(=O)[C@@H](O)CCN)OC[C@]1(C)O (stereo partly drawn) [Example 30, 6′-(2-Amino-propanol)-1-(4-amino-2(S)-hydroxy-butyryl)-sisomicin]	< 1 µg/mL	1 to 16 µg/mL (≈ 1.61 to 25.7 µM)	–	–	–
CN[C@@H]1[C@@H](O)[C@@H](O[C@@H]2[C@@H](O)[C@H](O[C@H]3OC(CNCC4(O)CCNCC4)=CC[C@H]3N)[C@@H](N)C[C@H]2NC(=O)[C@@H](O)CCN)OC[C@]1(C)O [Example 31]	1 to 16 µg/mL (≈ 1.51 to 24.2 µM)	1 to 16 µg/mL (≈ 1.51 to 24.2 µM)	–	–	–
CN[C@@H]1[C@@H](O)[C@@H](O[C@@H]2[C@@H](O)[C@H](O[C@H]3OC(CNCC(O)CCCN)=CC[C@H]3N)[C@@H](N)C[C@H]2NC(=O)[C@@H](O)CCN)OC[C@]1(C)O (stereo partly drawn) [Example 32, 6′-(2-Hydroxy-5-amino-pentyl)-1-(4-amino-2(S)-hydroxy-butyryl)-sisomicin]	< 1 µg/mL	1 to 16 µg/mL (≈ 1.54 to 24.6 µM)	–	–	–
CN[C@@H]1[C@@H](O)[C@@H](O[C@@H]2[C@@H](O)[C@H](O[C@H]3OC(CNCC4CC(N)C4)=CC[C@H]3N)[C@@H](N)C[C@H]2NC(=O)[C@@H](O)CCN)OC[C@]1(C)O (stereo partly drawn) [Example 33, 6′-(Methyl-trans-3-amino-cyclobutyl)-1-(4-amino-2(S)-hydroxy-butyryl)-sisomicin]	< 1 µg/mL	1 to 16 µg/mL (≈ 1.58 to 25.3 µM)	–	–	–
CN[C@@H]1[C@@H](O)[C@@H](O[C@@H]2[C@@H](O)[C@H](O[C@H]3OC(CNCC(O)CCN)=CC[C@H]3N)[C@@H](N)C[C@H]2NC(=O)C2(O)CCNC2)OC[C@]1(C)O (stereo partly drawn) [Example 35]	< 1 µg/mL	1 to 16 µg/mL (≈ 1.54 to 24.7 µM)	–	–	–
CN[C@@H]1[C@@H](O)[C@@H](O[C@@H]2[C@@H](O)[C@H](O[C@H]3OC(CNCCO)=CC[C@H]3N)[C@@H](N)C[C@H]2NC(=O)C2(O)CNC2)OC[C@]1(C)O [Example 37]	< 1 µg/mL	1 to 16 µg/mL (≈ 1.69 to 27.1 µM)	–	–	–
CN[C@@H]1[C@@H](O)[C@@H](O[C@@H]2[C@@H](O)[C@H](O[C@H]3OC(CNCCN)=CC[C@H]3N)[C@@H](N)C[C@H]2NC(=O)[C@@H](O)CCN)OC[C@]1(C)O [Example 38, 6′-(2-Amino-ethyl)-1-(4-amino-2(S)-hydroxy-butyryl)-sisomicin]	< 1 µg/mL	1 to 16 µg/mL (≈ 1.69 to 27 µM)	–	–	–
CN[C@@H]1[C@@H](O)[C@@H](O[C@@H]2[C@@H](O)[C@H](O[C@H]3OC(CNCCCN)=CC[C@H]3N)[C@@H](N)C[C@H]2NC(=O)C2(O)CCNC2)OC[C@]1(C)O (stereo partly drawn) [Example 40]	1 to 16 µg/mL (≈ 1.62 to 25.9 µM)	1 to 16 µg/mL (≈ 1.62 to 25.9 µM)	–	–	–
CN[C@@H]1[C@@H](O)[C@@H](O[C@@H]2[C@@H](O)[C@H](O[C@H]3OC(CNCC4CC4)=CC[C@H]3N)[C@@H](N)C[C@H]2NC(=O)C2(O)CCNC2)OC[C@]1(C)O (stereo partly drawn) [Example 41]	< 1 µg/mL	1 to 16 µg/mL (≈ 1.63 to 26 µM)	–	–	–
CN[C@@H]1[C@@H](O)[C@@H](O[C@@H]2[C@@H](O)[C@H](O[C@H]3OC(CNCC(O)CN)=CC[C@H]3N)[C@@H](N)C[C@H]2NC(=O)C2(O)CCNC2)OC[C@]1(C)O (stereo partly drawn) [Example 42, 6′-(2-Hydroxy-3-amino-propyl)-1-(3-hydroxy-pyrrolidin-3-yl-acetyl)-sisomicin]	1 to 16 µg/mL (≈ 1.58 to 25.2 µM)	1 to 16 µg/mL (≈ 1.58 to 25.2 µM)	–	–	–
CN[C@@H]1[C@@H](O)[C@@H](O[C@@H]2[C@@H](O)[C@H](O[C@H]3OC(CNCCCCN)=CC[C@H]3N)[C@@H](N)C[C@H]2NC(=O)[C@@H](O)CCN)OC[C@]1(C)O [Example 43, 6′-(4-Amino-butyl)-1-(4-amino-2(S)-hydroxy-butyryl)-sisomicin]	< 1 µg/mL	< 1 µg/mL	–	–	–
CN[C@@H]1[C@@H](O)[C@@H](O[C@@H]2[C@@H](O)[C@H](O[C@H]3OC(CNCCCCCN)=CC[C@H]3N)[C@@H](N)C[C@H]2NC(=O)[C@@H](O)CCN)OC[C@]1(C)O [Example 44, 6′-(5-Amino-pentyl)-1-(4-amino-2(S)-hydroxy-butyryl)-sisomicin]	< 1 µg/mL	1 to 16 µg/mL (≈ 1.58 to 25.2 µM)	–	–	–
CN[C@@H]1[C@@H](O)[C@@H](O[C@@H]2[C@@H](O)[C@H](O[C@H]3OC(CNCC4(O)CC(N)C4)=CC[C@H]3N)[C@@H](N)C[C@H]2NC(=O)[C@@H](O)CCN)OC[C@]1(C)O (stereo partly drawn) [Example 46]	< 1 µg/mL	1 to 16 µg/mL (≈ 1.54 to 24.7 µM)	–	–	–
CN[C@@H]1[C@@H](O)[C@@H](O[C@@H]2[C@@H](O)[C@H](O[C@H]3OC(CNCC4(O)CC(N)C4)=CC[C@H]3N)[C@@H](N)C[C@H]2NC(=O)C2(O)CNC2)OC[C@]1(C)O (stereo partly drawn) [Example 47]	1 to 16 µg/mL (≈ 1.55 to 24.8 µM)	1 to 16 µg/mL (≈ 1.55 to 24.8 µM)	–	–	–
CN[C@@H]1[C@@H](O)[C@@H](O[C@@H]2[C@@H](O)[C@H](O[C@H]3OC(CNCC4CCCN4)=CC[C@H]3N)[C@@H](N)C[C@H]2NC(=O)[C@@H](O)CCN)OC[C@]1(C)O (stereo partly drawn) [Example 49, 6′-(Methyl-pyrrolidin-2-yl)-1-(4-amino-2(S)-hydroxy-butyryl)-sisomicin]	< 1 µg/mL	1 to 16 µg/mL (≈ 1.58 to 25.3 µM)	–	–	–
CN[C@@H]1[C@@H](O)[C@@H](O[C@@H]2[C@@H](O)[C@H](O[C@H]3OC(CNC[C@H](O)C(=O)O)=CC[C@H]3N)[C@@H](N)C[C@H]2NC(=O)[C@@H](O)CCN)OC[C@]1(C)O [Example 50, 6′-(2(S)-Hydroxy-3-propanoic)-1-(4-amino-2(S)-hydroxy-butyryl)-sisomicin]	> 16 µg/mL	> 16 µg/mL	–	–	–
CN[C@@H]1[C@@H](O)[C@@H](O[C@@H]2[C@@H](O)[C@H](O[C@H]3OC(CNCC(C)(C)CN)=CC[C@H]3N)[C@@H](N)C[C@H]2NC(=O)[C@@H](O)CN)OC[C@]1(C)O [Example 51, 6′-(2,2-Dimethyl-3-amino-propyl)-1-(3-amino-2(S)-hydroxy-propionyl)-sisomicin]	< 1 µg/mL	> 16 µg/mL	–	–	–
CN[C@@H]1[C@@H](O)[C@@H](O[C@@H]2[C@@H](O)[C@H](O[C@H]3OC(CNCCC(N)C4CC4)=CC[C@H]3N)[C@@H](N)C[C@H]2NC(=O)[C@@H](O)CN)OC[C@]1(C)O (stereo partly drawn) [Example 52, 6′-(3-Amino-3-cyclopropyl-propyl)-1-(3-amino-2(S)-hydroxy-propionyl)-sisomicin]	< 1 µg/mL	1 to 16 µg/mL (≈ 1.58 to 25.3 µM)	–	–	–
CN[C@@H]1[C@@H](O)[C@@H](O[C@@H]2[C@@H](O)[C@H](O[C@H]3OC(CNC[C@H]4C[C@H](O)CN4)=CC[C@H]3N)[C@@H](N)C[C@H]2NC(=O)[C@@H](O)CN)OC[C@]1(C)O [Example 53, 6′-(Methyl-4(S)-hydroxy-pyrrolidin-2(R)-yl)-1-(3-amino-2(S)-hydroxy-propionyl)-sisomicin]	1 to 16 µg/mL (≈ 1.58 to 25.2 µM)	> 16 µg/mL	–	–	–
CN[C@@H]1[C@@H](O)[C@@H](O[C@@H]2[C@@H](O)[C@H](O[C@H]3OC(CNCCCO)=CC[C@H]3N)[C@@H](N)C[C@H]2NC(=O)[C@@H](O)CN)OC[C@]1(C)O [Example 54, 6′-(3-Propanol)-1-(3-amino-2(S)-hydroxy-propionyl)-sisomicin]	< 1 µg/mL	1 to 16 µg/mL (≈ 1.69 to 27 µM)	–	–	–
CN[C@@H]1[C@@H](O)[C@@H](O[C@@H]2[C@@H](O)[C@H](O[C@H]3OC(CNCC(C)(C)N)=CC[C@H]3N)[C@@H](N)C[C@H]2NC(=O)[C@@H](O)CN)OC[C@]1(C)O [Example 55, 6′-(2-Methyl-2-amino-propyl)-1-(3-amino-2(S)-hydroxy-propionyl)-sisomicin]	1 to 16 µg/mL (≈ 1.65 to 26.4 µM)	> 16 µg/mL	–	–	–
CN[C@@H]1[C@@H](O)[C@@H](O[C@@H]2[C@@H](O)[C@H](O[C@H]3OC(CNCC4(N)CCC4)=CC[C@H]3N)[C@@H](N)C[C@H]2NC(=O)[C@@H](O)CN)OC[C@]1(C)O [Example 56, 6′-(Methyl-1-amino-cyclobutyl)-1-(3-amino-2(S)-hydroxy-propionyl)-sisomicin]	< 1 µg/mL	> 16 µg/mL	–	–	–
CN[C@@H]1[C@@H](O)[C@@H](O[C@@H]2[C@@H](O)[C@H](O[C@H]3OC(CNCCCN)=CC[C@H]3N)[C@@H](N)C[C@H]2NC(=O)C2(O)CNC2)OC[C@]1(C)O [Example 57]	–	–	< 1 µg/mL	< 1 µg/mL	< 1 µg/mL
CN[C@@H]1[C@@H](O)[C@@H](O[C@@H]2[C@@H](O)[C@H](O[C@H]3OC(CNC[C@H]4C[C@H](N)C4)=CC[C@H]3N)[C@@H](N)C[C@H]2NC(=O)[C@@H](O)CN)OC[C@]1(C)O [Example 59, 6′-(Methyl-trans-3-amino-cyclobutyl)-1-(3-amino-2(S)-hydroxy-propionyl)-sisomicin]	< 1 µg/mL	1 to 16 µg/mL (≈ 1.62 to 25.9 µM)	–	–	–
CN[C@@H]1[C@@H](O)[C@@H](O[C@@H]2[C@@H](O)[C@H](O[C@H]3OC(CNC[C@H]4C[C@H](N)C4)=CC[C@H]3N)[C@@H](N)C[C@H]2NC(=O)C2(O)CC(N)C2)OC[C@]1(C)O (stereo partly drawn) [Example 60]	< 1 µg/mL	1 to 16 µg/mL (≈ 1.55 to 24.9 µM)	–	–	–
CN[C@@H]1[C@@H](O)[C@@H](O[C@@H]2[C@@H](O)[C@H](O[C@H]3OC(CNCCO)=CC[C@H]3N)[C@@H](N)C[C@H]2NC(=O)C2(O)CC(N)C2)OC[C@]1(C)O (stereo partly drawn) [Example 62]	< 1 µg/mL	1 to 16 µg/mL (≈ 1.65 to 26.5 µM)	–	–	–
